Results published in patent publication US20240216312A1, “PPAR-AGONISTS FOR USE IN THE TREATMENT OF LIVER FAILURE” (Genfit, priority 2021, published 2024).
Where two headings read alike, the source gives them in different places.

How the values were obtained:
[1] = test system: LPS/GaIN acute liver failure, C57BL/6J mice; assay: LPS/GalN model of acute liver failure in mice, hepatic gene expression, serum cytokines and albumin; format: in vivo, mouse; settings: 3 mg/kg/day oral 3 days before LPS/GaIN, 4 h after injection
THP1 macrophages [2] = assay: LPS (E. coli) activation of THP1 differentiated macrophages, TNFα and MCP1 secretion; format: cell-based, human; settings: compound 24 h, then 100 ng/mL LPS E. coli 6 h
Description: (§1) In order to test the efficacy of the compounds on macrophage activation and pro-inflammatory cytokine production, 2.5×10^4 THP-1 cells were cultured in a 384-well plate and treated with 100 ng/mL PMA (#P8139, Sigma) for 24 h to induce differentiation into macrophages.
Then, medium was removed and FBS-deprived medium containing the compound of formula (I) was added for 24 h. Finally, THP1 macrophages were stimulated with 100 ng/mL LPS (E. coli 055:B5, #L4005, Sigma) for 6 h.

THP-1 cells = assay: PMA-induced differentiation of THP-1 monocytes into macrophages, TNFα and MCP1 secretion (HTRF); format: cell-based; settings: Homo sapiens, PMA-stimulated THP1 monocytes, 24 h
Description: In order to test the efficacy of the compounds to inhibit the activation of the immune system, we used the human monocytic cell line THP-1 (Sigma). THP1 monocytes were cultured in RPMI 1640 with L-glutamine medium (#10-040-CV, Corning) supplemented with 10% fetal bovine serum (FBS, #10270, Gibco), 1% penicillin/streptomycin (#15140, Gibco) and 25 mM Hepes (H0887, Sigma) in a 5% C02 incubator at 37° C.
To evaluate the effect of the compounds on monocyte differentiation, 2.5×10^4 THP-1 cells were cultured for 24 h in a 384-well plate in FBS-deprived culture medium containing Cpd.1 in dose ranges, as well as 5 or 100 ng/mL phorbol 12-myristate 13-acetate (PMA, #P8139, Sigma), as indicated, to induce differentiation into macrophages.
(§2) Tumor necrosis α (TNFα) and monocyte chemoattractant protein 1 (MCP1) were measured in cell supernatants by Homogeneous Time Resolved Fluorescence (HTRF, #62[…] for TNFα, and 62HCCL2PEG for MCP1, Cisbio). Fluorescence was measured with Infinite 500 (#30019337, Tecan) to determine the concentration of cytokines.

HepG2 cells = assay: Staurosporin-induced apoptosis in HepG2 cells, caspase 3/7 activity; format: cell-based, human; settings: 16 h pre-treatment, then 10 μM staurosporin 4 h
Description: In order to evaluate the effect of the compounds on human hepatocytes that undergo a cellular stress induced by staurosporin, the human hepatoblastoma-derived HepG2 cell line (ECACC, #85011430, Sigma-Aldrich) was cultured in high-glucose DMEM medium (#41965, Gibco, France) supplemented with 10% of fetal bovine serum (FBS, #10270, Gibco), 1% penicillin/streptomycin (#15140, Gibco), 1% sodium pyruvate (#11360, Gibco) and 1% MEM non-essential amino acids (#11140, Gibco) in a 5% CO2 incubator at 37° C.
To evaluate caspase 3/7 activity, which is a surrogate marker of apoptosis, 1.5×10^4 cells were plated in a 384-well plate (#781080, Greiner, France). After cell adherence (8 hours), cells were serum starved for 16 h in the presence of 0.3 μM of compounds or vehicle. Cpd.1 was also used at 3 and 10 μM. Thereafter, cells were treated with 10 μM staurosporin (#569397, Sigma-Aldrich, Germany) supplemented with compound for additional 4 hours before cell lysis and caspase activity measurement.
Caspase 3/7 activity was measured using Caspase Glow™ 3/7 assay (#G8093, Promega, USA). Luminescence was measured using a Spark microplate reader (#30086376, Tecan, USA). The amount of luminescence (RLU) directly correlates with caspase 3/7 activity.

[3] = test system: LPS-induced endotoxemia, Sprague Dawley rats; assay: LPS-induced endotoxemia in rats, serum IL6 and IL1β (ELISA); format: in vivo; settings: rat, 3 mg/kg/day oral 3 days before LPS 1 mg/kg i.p., 3 h after LPS
Description: To evaluate the efficacy of the compounds to reduce the cytokine production in response to LPS-induced endotoxemia, male Sprague Dawley rats of 250-275 g from Janvier Labs (France) received a single intraperitoneal injection of 1 mg/kg LPS (Escherichia coli 0111:B4, #L2630, Sigma).
Cpd.1 (3 mg/kg/day) or vehicle (Labrafil M 1944 CS, #3063, Gattefossé) was administered by oral gavage during the 3 days before LPS injection. Rats were euthanized by cervical dislocation 3 hours after treatment. Blood samples were obtained from retro-orbital sinus puncture on animals slightly asleep with isoflurane (Isoflurin 1000 mg/g, GTIN 03760087152678, Axience) just before sacrifice.
The serum concentrations of interleukin-6 (IL6) and interleukin-1β (L1β) were determined by ELISA (SR6000B and SRLB00, respectively, R&D Systems).

THP1 macrophages [4] = assay: LPS (Klebsiella pneumoniae) activation of THP1 macrophages, MCP1 and TNFα secretion (HTRF); format: cell-based, human
Description: as §1
Then, medium was removed and FBS-deprived medium containing 1 or 10 μM compound was added for 24 h. Finally, THP1 macrophages were stimulated for 6 h with 100 ng/mL LPS (Klebsiella pneumoniae, #L4268, Sigma-Aldrich).
as §2, with “Monocyte chemoattractant protein 1 (MCP1) and Tumor” for “Tumor”, “(TNFα)” for “(TNFα) and monocyte chemoattractant protein 1 (MCP1)”
In order to evaluate the effect of the compounds according to the invention on LPS-induced cytokines production by macrophages, the percentage of inhibition over the vehicle condition were calculated for each compound at 1 and 10 μM.

[5] = test system: LPS-induced endotoxemia, Sprague Dawley rats; assay: LPS-induced endotoxemia in rats, hepatic markers and serum TNFα; format: in vivo; settings: rat, 3 mg/kg/day oral 3 days before LPS, 3 h after LPS
[6] = test system: CLP induced polymicrobial sepsis, C57BL6J mice; assay: Cecal ligation and puncture (CLP) sepsis model in mice, survival; format: in vivo; settings: mouse CLP
Description: This study aims to investigate the efficacy of Cpd.1 in cecal ligation and puncture (CLP) model in C57BL6J (BL6) male mice. The efficacy of the test compound was evaluated based on the survival rate of the animals within the study period.
C57BL6J male mice (supplier Janvier—France) at 9 weeks of age and weighing 23-25 g on arrival were anesthetized with 250 μL of xylazine/ketamine solution (20 mg/100 g body weight) by intraperitoneal route. A 1-1.5 cm abdominal midline incision was made, and the caecum was located and tightly ligated at half the distance between distal pole and the base of the cecum with 4-0 silk suture (mild grade). The caecum was punctured through-and-through once with a 21-gauge needle from mesenteric toward antimesenteric direction after medium ligation. A small amount of stool was extruded to ensure that the wounds were patent. Then the cecum was replaced in its original position within the abdomen, which was closed with sutures and wound clips. Mice were followed for body weight evolution and mortality rate until […].
Cpd.1 or vehicle (Labrafil M 1944 CS, #3063, Gattefossé) was administered at 0.3 mg/kg, p.o. for three days before CLP surgery. The day of CLP (day 0), Cpd.1 was administrated 1 h before surgery and pursued daily until day 6. Experiment was terminated at day 7. […]
Body weight and survival rate were measured for 7 days.

How did the “decrease of hepatic Ccl2 mRNA expression” value ([1]; mouse liver) turn out when `COC(CCc1cc(C)c(OC(C)(C)C(=O)O)c(C)c1)c1ccc(OC(F)(F)F)cc1` (stereo not shown) [Cpd. 1, 2-[4-(3-methoxy-3-(4-(trifluoromethoxy)phenyl)propyl)-2,6-dimethylphenoxy]-2-methylpropanoic acid] was run?
The value was 52%.

What about the “decrease of hepatic IL1b mRNA expression” value ([1]; mouse liver) of the same compound?
Its value is 46%.

What about the “decrease of hepatic IL6 mRNA expression” value ([1]; mouse liver) of the same compound?
The value was 52%.

And the “decrease of hepatic TNF mRNA expression” value ([1]; mouse liver)?
The value was 40%.

And the “reduction of hepatic Cd68 mRNA expression” value ([1]; mouse liver)?
The value was 41%.

What about the “reduction of circulating CCL2 level compared to vehicle” value ([1]; mouse serum) of the same compound?
Its value is 59%.

And the “reduction of circulating IL6 level compared to vehicle” value ([1]; mouse serum)?
The value was 62%.

What about the “reduction of circulating TNFα level compared to vehicle” value ([1]; mouse serum) of the same compound?
The value was 51%.

And the “reduction of TNFα secretion” value (THP1 macrophages [2])?
Its value is “potent at reducing”.

And the “reduction of MCP1 secretion” value (THP1 macrophages [2]; all doses tested)?
Its value is “overpassing the untreated condition”.

What about the inhibition at 1 µM (THP-1 cells; read-out: inhibition of MCP1 content in the supernatant) of the same compound?
Its inhibition at 1 µM is ~50%.

And the inhibition at 1 µM (THP-1 cells; read-out: inhibition of TNFα content in the supernatant)?
Its inhibition at 1 µM is ~50%.

And the “reduction of staurosporin-induced caspase activity” value (HepG2 cells; 0.3 μM to 10 μM)?
The value was “dose-dependent manner”.

And the inhibition at 0.3 µM (HepG2 cells; Homo sapiens, HepG2, 0.3 μM, read-out: % Inhibition of caspase activity over mean Veh.)?
The inhibition at 0.3 µM was 26%.

What about the “reduction of serum IL1β level” value [3] of the same compound?
The value was 31%.

What about the “reduction of serum IL6 level” value [3] of the same compound?
Its value is 40%.

And the inhibition at 1 µM (THP1 macrophages [4]; Homo sapiens, THP-1, 1 μM, 24 h, then LPS Klebsiella 6 h, read-out: % inhibition of MCP1 secretion over mean Veh.)?
The inhibition at 1 µM was 108%.

What about the inhibition at 10 µM (THP1 macrophages [4]; Homo sapiens, THP-1, 10 μM, 24 h, then LPS Klebsiella 6 h, read-out: % inhibition of MCP1 secretion over mean Veh.) of the same compound?
Its inhibition at 10 µM is 120%.

What about the “production of MCP1 induced by LPS Klebsiella” value (THP1 macrophages [4]; THP1 macrophages, in words, concentration not given) of the same compound?
The value was “overpassing the untreated condition”.

What about the “serum total bilirubin level compared to vehicle” value [5] of the same compound?
Its value is “completely restored”.

What about the “side effects after each administration” value ([6]; 0.3 mg/kg p.o.) of the same compound?
Its value is “No side effect”.

And the “increase in survival rate compared to CLP+Vehicle group” value ([6]; 0.3 mg/kg p.o. from 3 days before surgery, daily, Day 7)?
The value was 47%.
